ChEMBL document CHEMBL6115011, “Optimizing biofilm inhibitors: Balancing activity and toxicity in 2N-aminated 5-aryl-2-aminoimidazoles” (Bioorg Med Chem, 2025)

Experiments:
Escherichia coli [1] = experiment: Inhibition of biofilm formation in Escherichia coli TG1 at 25 degree C measured after 24 hrs by crystal violet staining based microplate reader analysis; assay type: functional, organism-based; details: TG1, 24 h
Escherichia coli [2] = experiment: Antibacterial activity against Escherichia coli TG1 at 25 degree C measured after 24 hrs by crystal violet staining based microplate reader analysis; assay type: functional, organism-based; details: TG1, 24 h
Pseudomonas aeruginosa [3] = experiment: Inhibition of biofilm formation in Pseudomonas aeruginosa PA14 at 25 degree C measured after 24 hrs by crystal violet staining based analysis; assay type: functional, organism-based; details: PA14, 24 h
Pseudomonas aeruginosa [4] = experiment: Antibacterial activity against Pseudomonas aeruginosa PA14 at 25 degree C measured after 24 hrs by crystal violet staining based microplate reader analysis; assay type: functional, organism-based; details: PA14, 24 h
Staphylococcus aureus [5] = experiment: Inhibition of biofilm formation in Staphylococcus aureus SH1000 at 25 degree C measured after 48 hrs by crystal violet staining based analysis; assay type: functional, organism-based; details: SH1000, 48 h
Staphylococcus aureus [6] = experiment: Antibacterial activity against Staphylococcus aureus SH1000 at 25 degree C measured after 48 hrs by crystal violet staining based microplate reader analysis; assay type: functional, organism-based; details: SH1000, 48 h
[7] = test system: Staphylococcus epidermidis; experiment: Inhibition of biofilm formation in Staphylococcus epidermidis at 25 degree C measured after 48 hrs by crystal violet staining based analysis; assay type: functional, organism-based
Staphylococcus aureus [8] = experiment: Inhibition of biofilm formation in methicillin-resistant Staphylococcus aureus at 25 degree C measured after 48 hrs by crystal violet staining based analysis; assay type: functional, organism-based
Staphylococcus aureus [9] = experiment: Antibacterial activity against methicillin-resistant Staphylococcus aureus at 25 degree C measured after 48 hrs by crystal violet staining based microplate reader analysis; assay type: functional, organism-based
[10] = Toxicity in Caenorhabditis elegans CB5612 by wide field microscopy based analysis
[11] = Cytotoxicity against human PBMC cells assessed as survival rate at 400 uM measured after 72 hrs by trypan blue staining based assay relative to control; assay type: toxicity, cell-based; details: read-out: Survival
[12] = test system: Staphylococcus epidermidis; experiment: Antibacterial activity against Staphylococcus epidermidis at 25 degree C measured after 48 hrs by crystal violet staining based microplate reader analysis; assay type: functional, organism-based
[13] = Cytotoxicity against human DND41 cells assessed as inhibition of cell growth measured after 72 hrs by CellTiter 96 Aqueous One Solution Cell Proliferation Assay; assay type: functional
K562 = experiment: Cytotoxicity against human K562 cells assessed as inhibition of cell growth measured after 72 hrs by CellTiter 96 Aqueous One Solution Cell Proliferation Assay; assay type: functional
Z-138 = experiment: Cytotoxicity against human Z138 cells assessed as inhibition of cell growth measured after 72 hrs by CellTiter 96 Aqueous One Solution Cell Proliferation Assay; assay type: functional
HL-60 = experiment: Cytotoxicity against human HL-60 cells assessed as inhibition of cell growth measured after 72 hrs by CellTiter 96 Aqueous One Solution Cell Proliferation Assay; assay type: functional
[14] = Cytotoxicity against human PBMC cells assessed as survival rate at 25 uM measured after 72 hrs by trypan blue staining based assay relative to control; assay type: toxicity, cell-based; details: read-out: Survival
[15] = Cytotoxicity against human PBMC cells assessed as survival rate at 100 uM measured after 72 hrs by trypan blue staining based assay relative to control; assay type: toxicity, cell-based; details: read-out: Survival
[16] = Genotoxicity in human CAPAN-1 cells assessed as fold change at 400 uM measured after 3 hrs by Western blot analysis; assay type: toxicity, cell-based; details: capan-1, 3 h
CAPAN-1 = experiment: Cytotoxicity against human CAPAN-1 cells assessed as inhibition of cell growth measured after 72 hrs by CellTiter 96 Aqueous One Solution Cell Proliferation Assay; assay type: functional
NCI-H460 = experiment: Cytotoxicity against human NCI-H460 cells assessed as inhibition of cell growth measured after 72 hrs by CellTiter 96 Aqueous One Solution Cell Proliferation Assay; assay type: functional
LN-229 = experiment: Cytotoxicity against human LN-229 cells assessed as inhibition of cell growth measured after 72 hrs by CellTiter 96 Aqueous One Solution Cell Proliferation Assay; assay type: functional
HCT-116 = experiment: Cytotoxicity against human HCT-116 cells assessed as inhibition of cell growth measured after 72 hrs by CellTiter 96 Aqueous One Solution Cell Proliferation Assay; assay type: functional
[17] = Genotoxicity in human CAPAN-1 cells at 100 to 400 uM measured after 3 hrs by Western blot analysis; assay type: toxicity, cell-based; details: capan-1, 3 h, dose 100-400 µM
[18] = Genotoxicity in human CAPAN-1 cells assessed as fold change at 100 uM measured after 3 hrs by Western blot analysis; assay type: toxicity, cell-based; details: capan-1, 3 h
[19] = Toxicity in Caenorhabditis elegans CB5612 assessed as increase in food depletion delay by wide field microscopy based analysis

| SMILES | IC50 (Escherichia coli [1]) [µM] | IC50 (Escherichia coli [2]) [µM] | IC50 (Pseudomonas aeruginosa [3]) [µM] | IC50 (Pseudomonas aeruginosa [4]) [µM] | IC50 (Staphylococcus aureus [5]) [µM] | IC50 (Staphylococcus aureus [6]) [µM] | IC50 [7] [µM] | IC50 (Staphylococcus aureus [8]) [µM] | IC50 (Staphylococcus aureus [9]) [µM] | IC50 [12] [µM] | fold change (FC) [16] | other results |
| --- | --- | --- | --- | --- | --- | --- | --- | --- | --- | --- | --- | --- |
| CCCCCCCCNc1ncc(-c2ccc(Cl)cc2)[nH]1 | 8.42 | 72.3 | > 200 | 70.2 | 43.1 | 84.4 |  |  |  |  |  |  |
| NCCCCCCCCn1c(-c2ccccc2)cnc1NC1CCCC1 | 33.5 | 85.1 | 107 | 74.4 | 70.4 | 79.4 |  |  |  |  |  |  |
| CCCCCCCCn1c(-c2ccccc2)cnc1NC1CCCC1 | 6.55 | 8.37 | > 800 | 20.6 | 8.34 | 8.35 |  |  |  |  |  |  |
| NCCCCNc1ncc(-c2ccc(F)cc2)[nH]1 | 14.9 | 31.5 | 4.5 | 34.6 | 167 | 176 | 6.1 | 98.1 | 217 |  |  | Activity [10]: Toxic |
| NCCCCCCCCn1c(-c2ccc(Br)cc2)cnc1NC1CCCC1 | 25.2 | 43.4 | 147 | 61.4 | 167 | 56.1 |  |  |  |  |  | viability at 72 h, 400 µM [11]: 48% |
| NCCCCCCCCNc1ncc(-c2ccc(Cl)cc2)[nH]1 | 16.6 | 16.9 | 19.2 | 21 | 15.8 | 12.5 | 59.6 | 34.8 | 93.7 | 51.2 | 12.1 | CC50 [13]: 20 µM; CC50 (K562; Homo sapiens, K562, 72 h): 20 µM; CC50 (Z-138; 72 h): 20 µM; CC50 (Z-138; Homo sapiens, Z-138, 72 h): 21.6 µM; CC50 (HL-60): 20 µM; viability at 72 h, 25 µM [14]: 79.6%; viability at 72 h, 100 µM [15]: 17.5%; viability at 72 h, 400 µM [11]: 0.5% |
| NCCCCCCNc1ncc(-c2ccc(Cl)cc2)[nH]1 | 3.28 | 16.1 | 4.24 | 22.3 | 86.5 | 71.2 | 42.1 | 28.3 | 16.1 | 90.8 | 14.6 | CC50 (CAPAN-1): 40 µM; CC50 (NCI-H460): 40 µM; CC50 (LN-229; Homo sapiens, LN-229, 72 h): 40 µM; CC50 (K562; Homo sapiens, K562, 72 h): 36.2 µM; CC50 (Z-138; Homo sapiens, Z-138, 72 h): 11 µM; CC50 (HCT-116): 40 µM; CC50 (HL-60): 13.2 µM |
| NCCCCCCCNc1ncc(-c2ccccc2)[nH]1 | 17.3 | 39.7 | 12.4 | 33.3 | 64.7 | 106 | 12.3 | 48.9 | 72.6 |  |  | CC50 (CAPAN-1): 41.1 µM; CC50 (NCI-H460): 68.8 µM; Activity [17]: Non-toxic |
| NCCCCCCCCCCCCNc1ncc(-c2ccccc2)[nH]1 | 9.6 | 9.5 | 6.7 | 12.3 | 25.4 | 14 | 23.8 | 12.8 | 19.7 | 32 | 1.95 | viability at 72 h, 25 µM [14]: 6%; viability at 72 h, 100 µM [15]: < 50%; viability at 72 h, 400 µM [11]: 4.5%; fold change (FC) [18]: 2.75; Time [19]: 3.5 days |
| NCCCCCCCCCCCNc1ncc(-c2ccccc2)[nH]1 | 15.5 | 14.2 | 8.3 | 16.7 | 37.5 | 28.6 | 1.8 | 18.1 | 47.7 | 25 | 1.75 | Time [19]: 3 days |
| NCCCCCCCCNc1ncc(-c2ccc(F)cc2)[nH]1 | 12.8 | 21.6 | 13.1 | 26.6 | 47.6 | 90.7 | 15.7 | 36.8 | 79.9 |  | 2.35 | CC50 [13]: 46.4 µM; CC50 (HCT-116): 29.9 µM; viability at 72 h, 25 µM [14]: 56.4%; viability at 72 h, 100 µM [15]: 70%; viability at 72 h, 400 µM [11]: 22.9%; Activity [10]: Toxic |
| CCCCCCNc1ncc(-c2ccc(Cl)cc2)[nH]1 | 11.3 | 21.8 | 40.6 | 38.7 | 141 | 186 |  |  |  |  |  |  |
| NCCCCCCCCNc1ncc(-c2ccccc2)[nH]1 | 13.5 | 15.6 | 12.7 | 21.1 | 21.1 | 40.6 | 3.5 | 35.3 | 45.4 | 20.4 |  | CC50 (CAPAN-1): 30 µM; CC50 (NCI-H460): 30 µM; CC50 (LN-229; 72 h): 30 µM; CC50 (LN-229; Homo sapiens, LN-229, 72 h): 52.9 µM; CC50 [13]: 58.3 µM; CC50 (K562; 72 h): 30 µM; CC50 (K562; Homo sapiens, K562, 72 h): 57.4 µM; CC50 (Z-138; 72 h): 30 µM; CC50 (Z-138; Homo sapiens, Z-138, 72 h): 49.7 µM; CC50 (HL-60): 30 µM; viability at 72 h, 100 µM [15]: < 50%; Activity [17]: Non-toxic |
| CCCCCCCCn1c(-c2ccc(Br)cc2)cnc1NC1CCCC1 | 14 | 25.7 | > 800 | 25.2 | 63.2 | 33.1 |  |  |  |  |  |  |
| NCCCCCCNc1ncc(-c2ccc(Br)cc2)[nH]1 | 14.2 | 21 | 11.2 | 27.4 | 59.6 | 38.6 | 35.3 | 60 | 106 | 85.2 | 5.75 | CC50 (CAPAN-1): 40 µM; CC50 (NCI-H460): 40 µM; CC50 (LN-229; Homo sapiens, LN-229, 72 h): 40 µM; CC50 (HCT-116): 40 µM; fold change (FC) [18]: 2.3; Time [19]: 0.66 days |
| NCCCCCNc1ncc(-c2ccccc2)[nH]1 | 38.3 | 80 | 16.5 | 61.2 | 91.7 | 224 | 25.6 | 154 | 503 |  |  | Activity [17]: Non-toxic |
| NCCCCCCCCNc1ncc(-c2ccc(Br)cc2)[nH]1 | 6.8 | 17.6 | 7.8 | 14.5 | 46.1 | 36.7 | 12.6 | 26.3 | 61.8 |  |  | CC50 (CAPAN-1): 30 µM; CC50 (NCI-H460): 30 µM; CC50 (LN-229; Homo sapiens, LN-229, 72 h): 30 µM; CC50 (K562; Homo sapiens, K562, 72 h): 30 µM; CC50 (Z-138; Homo sapiens, Z-138, 72 h): 30 µM; CC50 (HL-60): 30 µM; viability at 72 h, 25 µM [14]: 79.8%; viability at 72 h, 100 µM [15]: 94%; viability at 72 h, 400 µM [11]: 30.2%; Activity [10]: Toxic |
| NCCCCCCCCCCNc1ncc(-c2ccccc2)[nH]1 | 18.6 | 17.8 | 16.8 | 60.7 | 24.9 | 15.3 | 8.2 | 19.8 | 23.8 | 25.7 | 2 | CC50 (HCT-116): 46.9 µM; CC50 (HL-60): 47.1 µM |
| CCc1c2c(nc3ccc(O)cc13)-c1cc3c(c(=O)n1C2)COC(=O)[C@]3(O)CC [7-ETHYL-10-HYDROXYCAMPTOTHECIN] |  |  |  |  |  |  |  |  |  |  | 9 | fold change (FC) [18]: > 7 |
| OB(O)O [BORIC ACID] |  |  |  |  |  |  |  |  |  |  |  | Time [19]: > 10 days |
| COc1cc([C@@H]2c3cc4c(cc3[C@@H](O[C@@H]3O[C@@H]5CO[C@@H](C)O[C@H]5[C@H](O)[C@H]3O)[C@H]3COC(=O)[C@H]23)OCO4)cc(OC)c1O [ETOPOSIDE] |  |  |  |  |  |  |  |  |  |  | > 8 | viability at 72 h, 25 µM [14]: < 67%; viability at 72 h, 100 µM [15]: 71%; viability at 72 h, 400 µM [11]: 38%; fold change (FC) [18]: 10 |
